Test results published in the kinase profiling compilation of Christmann-Franck et al. (2016).

Key:
Assay in all cases: radiometric filter-binding kinase assay, Kinase HotSpot
Details in all cases: compound 0.5 µM; ATP 10 µM
[1] = molecular target: ADRBK2 (human) (UniProt P35626)
[2] = molecular target: AKT1 (human) (UniProt P31749)
[3] = molecular target: CAMKK2 (human) (UniProt Q96RR4)
[4] = molecular target: CDK4 CCND1 (human) (UniProt P24385+P11802)
[5] = molecular target: CLK3 (human) (UniProt P49761)
[6] = molecular target: CSNK1A1 (human) (UniProt P48729)
[7] = molecular target: CSNK1E (human) (UniProt P49674)
[8] = molecular target: DYRK3 (human) (UniProt O43781)
[9] = molecular target: EPHA5 (human) (UniProt P54756)
[10] = molecular target: EPHA8 (human) (UniProt P29322)
[11] = molecular target: EPHB2 (human) (UniProt P29323)
[12] = molecular target: ERBB4 (human) (UniProt Q15303)
[13] = molecular target: FLT1 (human) (UniProt P17948)
[14] = molecular target: GRK4 (human) (UniProt P32298)
[15] = molecular target: IKBKB (human) (UniProt O14920)
[16] = molecular target: IKBKE (human) (UniProt Q14164)
[17] = molecular target: INSR (human) (UniProt P06213)
[18] = molecular target: KDR (human) (UniProt P35968)
[19] = molecular target: MAP3K14 (human) (UniProt Q99558)
[20] = molecular target: MAP3K7 TAB1 (human) (UniProt O43318+Q15750)
[21] = molecular target: MAP4K4 (human) (UniProt O95819)
[22] = molecular target: MAP4K5 (human) (UniProt Q9Y4K4)
[23] = molecular target: MAPKAPK2 (human) (UniProt P49137)
[24] = molecular target: MLTK (human) (UniProt Q9NYL2)
[25] = molecular target: MUSK (human) (UniProt O15146)
[26] = molecular target: MYLK2 (human) (UniProt Q9H1R3)
[27] = molecular target: NEK11 (human) (UniProt Q8NG66)
[28] = molecular target: PAK3 (human) (UniProt O75914)
[29] = molecular target: PASK (human) (UniProt Q96RG2)
[30] = molecular target: PDGFRB (human) (UniProt P09619)
[31] = molecular target: PKN1 (human) (UniProt Q16512)
[32] = molecular target: PLK2 (human) (UniProt Q9NYY3)
[33] = molecular target: PRKACA (human) (UniProt P17612)
[34] = molecular target: PRKCA (human) (UniProt P17252)
[35] = molecular target: PRKCG (human) (UniProt P05129)
[36] = molecular target: PRKD3 (human) (UniProt O94806)
[37] = molecular target: RAF1 (human) (UniProt P04049)
[38] = molecular target: RET (human) (UniProt P07949)
[39] = molecular target: RPS6KA5 KD2 (human) (UniProt O75582)
[40] = molecular target: STK11 (human) (UniProt Q15831)
[41] = molecular target: TSSK2 (human) (UniProt Q96PF2)
[42] = molecular target: CSNK2A2 (human) (UniProt P19784)

Sequence of CSNK1E (human) (P49674 whole entry, looked up): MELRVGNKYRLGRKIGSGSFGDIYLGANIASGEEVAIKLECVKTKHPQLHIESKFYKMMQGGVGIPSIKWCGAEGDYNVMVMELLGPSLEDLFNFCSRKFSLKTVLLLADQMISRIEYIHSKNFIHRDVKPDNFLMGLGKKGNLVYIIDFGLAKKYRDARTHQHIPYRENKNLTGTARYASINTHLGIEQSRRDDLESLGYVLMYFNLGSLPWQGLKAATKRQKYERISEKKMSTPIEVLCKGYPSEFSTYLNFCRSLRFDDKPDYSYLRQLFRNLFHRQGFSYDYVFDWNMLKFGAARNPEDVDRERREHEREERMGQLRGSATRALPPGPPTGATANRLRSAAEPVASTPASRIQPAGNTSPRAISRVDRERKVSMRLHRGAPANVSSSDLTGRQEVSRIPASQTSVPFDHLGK
Sequence of GRK4 (human) (P32298 whole entry, looked up): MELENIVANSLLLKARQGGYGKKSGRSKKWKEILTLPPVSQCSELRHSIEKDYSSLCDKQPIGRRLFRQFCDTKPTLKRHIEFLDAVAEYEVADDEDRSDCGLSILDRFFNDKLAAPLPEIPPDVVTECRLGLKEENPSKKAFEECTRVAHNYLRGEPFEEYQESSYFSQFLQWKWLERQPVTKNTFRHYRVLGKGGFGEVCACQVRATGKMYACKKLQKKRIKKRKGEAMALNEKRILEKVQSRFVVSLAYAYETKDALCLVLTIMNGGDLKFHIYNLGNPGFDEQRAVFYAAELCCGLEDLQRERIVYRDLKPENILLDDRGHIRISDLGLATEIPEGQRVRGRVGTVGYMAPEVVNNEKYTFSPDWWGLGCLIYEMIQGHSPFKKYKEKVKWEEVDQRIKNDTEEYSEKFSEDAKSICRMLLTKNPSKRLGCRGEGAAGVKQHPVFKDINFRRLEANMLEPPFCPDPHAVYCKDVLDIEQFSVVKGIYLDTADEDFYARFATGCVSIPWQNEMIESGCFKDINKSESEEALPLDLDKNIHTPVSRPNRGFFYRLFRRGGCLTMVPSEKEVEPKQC
Sequence of MAP3K14 (human) (Q99558 whole entry, looked up): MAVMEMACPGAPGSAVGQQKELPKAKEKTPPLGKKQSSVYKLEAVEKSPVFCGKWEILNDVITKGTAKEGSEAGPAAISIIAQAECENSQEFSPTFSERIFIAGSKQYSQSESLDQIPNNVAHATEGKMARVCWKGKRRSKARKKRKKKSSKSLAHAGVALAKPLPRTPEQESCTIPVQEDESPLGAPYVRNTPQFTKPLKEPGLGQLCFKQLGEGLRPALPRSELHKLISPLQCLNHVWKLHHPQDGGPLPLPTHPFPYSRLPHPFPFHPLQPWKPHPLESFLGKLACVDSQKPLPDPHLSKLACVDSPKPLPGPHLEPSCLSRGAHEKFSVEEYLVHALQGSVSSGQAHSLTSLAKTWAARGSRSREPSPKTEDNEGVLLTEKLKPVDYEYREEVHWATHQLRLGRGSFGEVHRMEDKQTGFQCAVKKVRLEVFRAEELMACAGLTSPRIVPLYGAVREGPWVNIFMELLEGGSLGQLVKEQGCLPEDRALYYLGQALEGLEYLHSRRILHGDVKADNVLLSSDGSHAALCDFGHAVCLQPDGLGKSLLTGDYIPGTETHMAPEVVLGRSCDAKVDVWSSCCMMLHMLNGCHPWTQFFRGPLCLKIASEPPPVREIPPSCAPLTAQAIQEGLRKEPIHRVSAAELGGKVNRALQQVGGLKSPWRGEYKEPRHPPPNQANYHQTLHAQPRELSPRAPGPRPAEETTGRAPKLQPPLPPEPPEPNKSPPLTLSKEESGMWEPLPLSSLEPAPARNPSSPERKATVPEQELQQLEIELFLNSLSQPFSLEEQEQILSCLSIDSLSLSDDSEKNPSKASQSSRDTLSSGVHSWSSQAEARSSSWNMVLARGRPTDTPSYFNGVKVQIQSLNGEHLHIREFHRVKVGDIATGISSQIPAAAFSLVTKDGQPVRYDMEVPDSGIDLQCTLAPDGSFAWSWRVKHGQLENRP
Sequence of FLT1 (human) (P17948 whole entry, looked up): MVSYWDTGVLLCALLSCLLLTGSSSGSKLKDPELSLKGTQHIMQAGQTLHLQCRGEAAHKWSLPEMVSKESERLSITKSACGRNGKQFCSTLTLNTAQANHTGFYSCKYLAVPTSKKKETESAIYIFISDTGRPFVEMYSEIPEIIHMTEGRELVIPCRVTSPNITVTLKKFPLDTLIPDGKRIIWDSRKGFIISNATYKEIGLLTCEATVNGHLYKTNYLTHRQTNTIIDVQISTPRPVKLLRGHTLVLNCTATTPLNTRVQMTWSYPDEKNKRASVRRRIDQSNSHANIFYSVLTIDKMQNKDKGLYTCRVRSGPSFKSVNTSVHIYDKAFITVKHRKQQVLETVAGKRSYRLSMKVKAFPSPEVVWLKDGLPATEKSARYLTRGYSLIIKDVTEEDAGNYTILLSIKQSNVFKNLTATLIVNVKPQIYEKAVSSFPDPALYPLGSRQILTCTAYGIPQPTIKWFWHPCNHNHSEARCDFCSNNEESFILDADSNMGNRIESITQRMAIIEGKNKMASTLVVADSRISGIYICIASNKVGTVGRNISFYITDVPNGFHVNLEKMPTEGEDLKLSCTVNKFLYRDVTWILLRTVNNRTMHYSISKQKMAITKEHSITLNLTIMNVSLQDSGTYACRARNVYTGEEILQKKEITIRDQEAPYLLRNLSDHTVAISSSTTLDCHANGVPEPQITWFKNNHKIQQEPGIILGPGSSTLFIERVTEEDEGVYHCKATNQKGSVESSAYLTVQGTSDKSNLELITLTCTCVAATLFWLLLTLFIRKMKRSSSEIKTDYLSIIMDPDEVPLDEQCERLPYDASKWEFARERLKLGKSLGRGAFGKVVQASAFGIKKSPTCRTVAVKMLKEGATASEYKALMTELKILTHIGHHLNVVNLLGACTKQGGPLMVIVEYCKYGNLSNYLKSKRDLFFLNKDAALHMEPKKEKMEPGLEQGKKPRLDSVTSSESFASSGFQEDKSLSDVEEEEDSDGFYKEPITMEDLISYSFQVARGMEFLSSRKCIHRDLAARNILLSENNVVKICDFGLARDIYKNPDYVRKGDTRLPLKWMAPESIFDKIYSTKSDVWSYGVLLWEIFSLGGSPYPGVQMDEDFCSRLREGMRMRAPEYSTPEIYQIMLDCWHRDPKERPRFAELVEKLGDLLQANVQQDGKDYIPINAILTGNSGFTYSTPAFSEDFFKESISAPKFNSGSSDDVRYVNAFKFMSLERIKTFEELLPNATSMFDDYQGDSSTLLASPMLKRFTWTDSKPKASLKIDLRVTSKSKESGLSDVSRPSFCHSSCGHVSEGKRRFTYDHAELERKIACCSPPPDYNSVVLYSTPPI
Sequence of EPHB2 (human) (P29323 whole entry, looked up): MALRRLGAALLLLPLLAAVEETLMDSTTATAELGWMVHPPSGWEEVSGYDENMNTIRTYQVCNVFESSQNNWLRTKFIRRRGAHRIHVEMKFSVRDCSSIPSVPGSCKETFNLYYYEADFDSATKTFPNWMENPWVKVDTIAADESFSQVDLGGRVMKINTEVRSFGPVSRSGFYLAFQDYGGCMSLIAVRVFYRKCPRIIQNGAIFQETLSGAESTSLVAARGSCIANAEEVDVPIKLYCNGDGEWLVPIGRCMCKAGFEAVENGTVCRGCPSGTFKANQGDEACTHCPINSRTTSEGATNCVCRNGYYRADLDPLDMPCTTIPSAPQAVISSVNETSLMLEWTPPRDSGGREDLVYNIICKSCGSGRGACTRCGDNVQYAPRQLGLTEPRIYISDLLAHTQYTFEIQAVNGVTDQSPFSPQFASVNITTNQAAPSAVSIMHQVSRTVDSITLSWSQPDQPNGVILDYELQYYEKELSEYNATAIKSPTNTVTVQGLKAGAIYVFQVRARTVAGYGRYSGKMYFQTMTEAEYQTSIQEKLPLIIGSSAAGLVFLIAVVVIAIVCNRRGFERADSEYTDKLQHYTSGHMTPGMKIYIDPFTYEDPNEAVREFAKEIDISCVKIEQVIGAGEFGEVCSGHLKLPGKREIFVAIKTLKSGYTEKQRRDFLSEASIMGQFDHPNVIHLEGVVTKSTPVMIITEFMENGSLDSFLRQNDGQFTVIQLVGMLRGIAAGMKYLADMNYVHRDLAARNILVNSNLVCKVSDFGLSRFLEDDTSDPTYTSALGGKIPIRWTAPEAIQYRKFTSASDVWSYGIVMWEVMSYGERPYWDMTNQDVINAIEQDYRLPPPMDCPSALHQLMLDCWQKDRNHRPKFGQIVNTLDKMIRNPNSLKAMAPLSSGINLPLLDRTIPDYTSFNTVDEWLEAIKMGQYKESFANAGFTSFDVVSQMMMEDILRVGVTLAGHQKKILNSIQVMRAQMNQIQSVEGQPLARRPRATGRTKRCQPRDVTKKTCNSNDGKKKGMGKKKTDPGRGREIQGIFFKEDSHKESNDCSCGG

## Nc1ncnc2[nH]nc(Nc3ccc(F)cc3)c12
[1]
  residual activity: 102%
[2]
  residual activity: 93.3%
[3]
  residual activity: 83.6%
[4]
  residual activity: 90.3%
[5]
  residual activity: 112%
[6]
  residual activity: 90.3%
[7]
  residual activity: 80.5%
[8]
  residual activity: 89%
[9]
  residual activity: 87%
[10]
  residual activity: 94%
[11]
  residual activity: 91.6%
[12]
  residual activity: 121%
[13]
  residual activity: 87.3%
[14]
  residual activity: 98.8%
[15]
  residual activity: 105%
[16]
  residual activity: 100%
[17]
  residual activity: 98.5%
[18]
  residual activity: 104%
[19]
  residual activity: 111%
[20]
  residual activity: 100%
[21]
  residual activity: 59.4%
[22]
  residual activity: 52%
[23]
  residual activity: 105%
[24]
  residual activity: 88%
[25]
  residual activity: 93.9%
[26]
  residual activity: 87.3%
[27]
  residual activity: 102%
[28]
  residual activity: 104%
[29]
  residual activity: 91.8%
[30]
  residual activity: 98%
[31]
  residual activity: 102%
[32]
  residual activity: 101%
[33]
  residual activity: 96.8%
[34]
  residual activity: 98%
[35]
  residual activity: 96%
[36]
  residual activity: 86.7%
[37]
  residual activity: 96.7%
[38]
  residual activity: 78.1%
[39]
  residual activity: 96.7%
[40]
  residual activity: 97.1%
[41]
  residual activity: 90.8%

## Cc1ccc(Nc2nccc(N(C)c3ccc4c(C)n(C)nc4c3)n2)cc1S(N)(=O)=O
[1]
  residual activity: 99.3%
[2]
  residual activity: 91.2%
[3]
  residual activity: 98.5%
[4]
  residual activity: 88.4%
[5]
  residual activity: 107%
[6]
  residual activity: 100%
[7]
  residual activity: 97.5%
[42]
  residual activity: 99.8%
[8]
  residual activity: 95.9%
[9]
  residual activity: 99.7%
[10]
  residual activity: 90%
[11]
  residual activity: 91.9%
[12]
  residual activity: 86.9%
[13]
  residual activity: 27.2%
[14]
  residual activity: 91.7%
[15]
  residual activity: 86.9%
[16]
  residual activity: 87%
[17]
  residual activity: 107%
[19]
  residual activity: 104%
[20]
  residual activity: 90.6%
[21]
  residual activity: 77.4%
[22]
  residual activity: 30.3%
[23]
  residual activity: 99.6%
[24]
  residual activity: 96.9%
[25]
  residual activity: 95.1%
[27]
  residual activity: 94.8%
[28]
  residual activity: 90.6%
[29]
  residual activity: 101%
[30]
  residual activity: 40.4%
[31]
  residual activity: 102%
[32]
  residual activity: 101%
[33]
  residual activity: 94.5%
[34]
  residual activity: 94.4%
[35]
  residual activity: 93.5%
[36]
  residual activity: 90%
[37]
  residual activity: 9.43%
[38]
  residual activity: 25.7%
[39]
  residual activity: 101%
[40]
  residual activity: 92.1%
[41]
  residual activity: 102%

## CCN(CC)CCNC(=O)c1c(C)[nH]c(/C=C2\C(=O)Nc3ccc(F)cc32)c1C
[1]
  residual activity: 94.8%
[2]
  residual activity: 105%
[3]
  residual activity: 65.3%
[4]
  residual activity: 81%
[5]
  residual activity: 105%
[7]
  residual activity: 46.9%
[42]
  residual activity: 92.2%
[8]
  residual activity: 58.2%
[9]
  residual activity: 87.6%
[10]
  residual activity: 92.1%
[11]
  residual activity: 72.1%
[12]
  residual activity: 94.8%
[13]
  residual activity: 58.7%
[14]
  residual activity: 75.8%
[15]
  residual activity: 81%
[16]
  residual activity: 45.6%
[19]
  residual activity: 127%
[20]
  residual activity: 18.6%
[21]
  residual activity: 12.4%
[22]
  residual activity: 4.06%
[23]
  residual activity: 93.2%
[25]
  residual activity: 51.3%
[26]
  residual activity: 7.74%
[27]
  residual activity: 106%
[29]
  residual activity: 102%
[30]
  residual activity: 17.6%
[31]
  residual activity: 71.4%
[32]
  residual activity: 99.2%
[33]
  residual activity: 89.1%
[34]
  residual activity: 79.9%
[35]
  residual activity: 83.8%
[36]
  residual activity: 16.6%
[37]
  residual activity: 110%
[38]
  residual activity: 3.43%
[39]
  residual activity: 60.1%
[40]
  residual activity: 97.2%
[41]
  residual activity: 72.9%

## CNC(=O)c1cc(Oc2ccc(NC(=O)Nc3ccc(Cl)c(C(F)(F)F)c3)cc2)ccn1
[1]
  residual activity: 98.4%
[2]
  residual activity: 96.2%
[3]
  residual activity: 103%
[4]
  residual activity: 96.2%
[5]
  residual activity: 99.3%
[6]
  residual activity: 97.8%
[7]
  residual activity: 95.9%
[42]
  residual activity: 94.4%
[8]
  residual activity: 92.7%
[9]
  residual activity: 99.4%
[10]
  residual activity: 94.5%
[11]
  residual activity: 93.2%
[12]
  residual activity: 94.8%
[13]
  residual activity: 50.5%
[14]
  residual activity: 103%
[15]
  residual activity: 88.3%
[16]
  residual activity: 89.8%
[17]
  residual activity: 106%
[19]
  residual activity: 96.4%
[20]
  residual activity: 101%
[21]
  residual activity: 96.1%
[22]
  residual activity: 57%
[23]
  residual activity: 100%
[24]
  residual activity: 16.7%
[25]
  residual activity: 101%
[26]
  residual activity: 96.1%
[27]
  residual activity: 105%
[28]
  residual activity: 103%
[29]
  residual activity: 99.5%
[30]
  residual activity: 12%
[31]
  residual activity: 106%
[32]
  residual activity: 101%
[33]
  residual activity: 92.6%
[34]
  residual activity: 96.8%
[35]
  residual activity: 94.7%
[36]
  residual activity: 94%
[38]
  residual activity: 1.78%
[39]
  residual activity: 102%
[40]
  residual activity: 104%
[41]
  residual activity: 102%

## CCCC(=O)Oc1ccc2[nH]c(C(=O)c3cc4ccccc4[nH]3)cc2c1
[1]
  residual activity: 101%
[2]
  residual activity: 102%
[3]
  residual activity: 84.6%
[4]
  residual activity: 106%
[5]
  residual activity: 96.9%
[6]
  residual activity: 94%
[7]
  residual activity: 97.4%
[8]
  residual activity: 92.6%
[9]
  residual activity: 97.7%
[10]
  residual activity: 98%
[11]
  residual activity: 98.4%
[12]
  residual activity: 99.8%
[13]
  residual activity: 89.7%
[14]
  residual activity: 93.7%
[15]
  residual activity: 98.7%
[16]
  residual activity: 91.4%
[17]
  residual activity: 101%
[18]
  residual activity: 90.4%
[19]
  residual activity: 109%
[20]
  residual activity: 92.1%
[21]
  residual activity: 97.3%
[22]
  residual activity: 88%
[23]
  residual activity: 92.4%
[24]
  residual activity: 104%
[25]
  residual activity: 79.8%
[26]
  residual activity: 98.2%
[27]
  residual activity: 101%
[28]
  residual activity: 102%
[29]
  residual activity: 88.7%
[30]
  residual activity: 91.2%
[31]
  residual activity: 94.6%
[32]
  residual activity: 101%
[33]
  residual activity: 96.6%
[34]
  residual activity: 102%
[35]
  residual activity: 99%
[36]
  residual activity: 102%
[37]
  residual activity: 98.7%
[38]
  residual activity: 100%
[39]
  residual activity: 95.3%
[40]
  residual activity: 101%
[41]
  residual activity: 78%
